Test results reported in patent publication US11192891B2, “Diazaspiro ROCK inhibitors” (BRISTOL-MYERS SQUIBB COMPANY, priority 2017, dated 2021).
pIC50: −log10 of the molar value.

Molecular target: ROCK2 (Homo sapiens, UniProt O75116)
Test: ROCK kinase inhibition assay, FITC peptide substrate, LABCHIP 3000 readout
Assay type: biochemical
Settings: 5 μM ATP, 1.5 μM peptide substrate
How it was run: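 Tested across a concentration range, with percent inhibition of kinase activity derived per concentration. Peptide phosphorylation, initiated by adding the Rho kinase variant (final DMSO <2%), was quenched with EDTA and substrate/product resolved by mobility shift.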

Chain of ROCK2 (O75116 whole entry, species assumed): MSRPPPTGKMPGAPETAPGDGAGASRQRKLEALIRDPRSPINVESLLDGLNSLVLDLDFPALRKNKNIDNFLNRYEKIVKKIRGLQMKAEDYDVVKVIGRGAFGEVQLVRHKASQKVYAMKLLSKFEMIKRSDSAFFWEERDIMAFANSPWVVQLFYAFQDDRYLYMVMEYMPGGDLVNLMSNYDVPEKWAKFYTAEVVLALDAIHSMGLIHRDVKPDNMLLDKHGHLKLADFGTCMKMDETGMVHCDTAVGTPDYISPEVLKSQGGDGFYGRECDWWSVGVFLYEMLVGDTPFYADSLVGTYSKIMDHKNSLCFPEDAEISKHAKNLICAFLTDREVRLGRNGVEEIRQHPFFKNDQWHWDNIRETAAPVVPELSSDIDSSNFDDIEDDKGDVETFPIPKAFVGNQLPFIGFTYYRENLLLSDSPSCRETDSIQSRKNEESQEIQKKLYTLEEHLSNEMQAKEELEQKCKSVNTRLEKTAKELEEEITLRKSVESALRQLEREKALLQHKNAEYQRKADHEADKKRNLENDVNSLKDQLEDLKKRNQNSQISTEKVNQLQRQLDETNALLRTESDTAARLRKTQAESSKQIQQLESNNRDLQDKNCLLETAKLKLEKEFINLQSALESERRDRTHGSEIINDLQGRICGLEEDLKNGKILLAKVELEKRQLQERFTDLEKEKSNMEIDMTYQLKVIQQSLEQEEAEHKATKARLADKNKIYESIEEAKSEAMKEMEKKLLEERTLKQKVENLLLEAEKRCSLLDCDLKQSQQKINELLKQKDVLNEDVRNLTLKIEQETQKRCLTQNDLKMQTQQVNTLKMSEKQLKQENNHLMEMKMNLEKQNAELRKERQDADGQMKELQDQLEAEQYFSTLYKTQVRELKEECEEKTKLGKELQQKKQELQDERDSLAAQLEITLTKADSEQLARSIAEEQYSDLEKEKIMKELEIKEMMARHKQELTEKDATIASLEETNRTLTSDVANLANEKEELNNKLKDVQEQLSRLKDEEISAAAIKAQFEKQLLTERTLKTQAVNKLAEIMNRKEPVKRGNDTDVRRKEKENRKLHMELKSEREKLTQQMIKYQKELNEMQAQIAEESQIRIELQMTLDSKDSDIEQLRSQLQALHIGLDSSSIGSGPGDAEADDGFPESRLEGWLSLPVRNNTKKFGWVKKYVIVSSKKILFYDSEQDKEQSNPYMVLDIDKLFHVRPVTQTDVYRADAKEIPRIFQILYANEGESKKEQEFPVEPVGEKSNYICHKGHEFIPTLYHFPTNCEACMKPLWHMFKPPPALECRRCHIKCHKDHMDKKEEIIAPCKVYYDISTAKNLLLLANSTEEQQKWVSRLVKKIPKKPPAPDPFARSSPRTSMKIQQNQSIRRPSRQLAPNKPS

Row | SMILES | pIC50
1 | COc1cc(N2CCC3(CCN(C(=O)c4ccc(-c5nn[nH]n5)cc4)CC3)C2=O)ccc1-c1cn[nH]c1 [Example 143, 2-[3-methoxy-4-(1H-pyrazol-4-yl)phenyl]-8-[4-(2H-1,2,3,4-tetrazol-5-yl)benzoyl]-2,8-diazaspiro[4.5]decan-1-one] | 5.99
2 | COc1cc(N2CCC3(CCN(C(=O)c4ccc5c(c4)CNC5=O)CC3)C2=O)ccc1-c1cn[nH]c1 [Example 144, 2-[3-methoxy-4-(1H-pyrazol-4-yl)phenyl]-8-(1-oxo-2,3-dihydro-1H-isoindole-5-carbonyl)-2,8-diazaspiro[4.5]decan-1-one] | 7.03
3 | COc1cc(N2CCC3(CCN(C(=O)c4ccc(-n5cncn5)nc4)CC3)C2=O)ccc1-c1cn[nH]c1 [Example 145, 2-[3-methoxy-4-(1H-pyrazol-4-yl)phenyl]-8-[6-(1H-1,2,4-triazol-1-yl)pyridine-3-carbonyl]-2,8-diazaspiro[4.5]decan-1-one] | 7.27
4 | COc1cc(N2CCC3(CCN(C(=O)c4ccc(-n5ccncc5=O)cc4)CC3)C2=O)ccc1-c1cn[nH]c1 [Example 146, 2-[3-methoxy-4-(1H-pyrazol-4-yl)phenyl]-8-[4-(2-oxo-1,2-dihydropyrazin-1-yl)benzoyl]-2,8-diazaspiro[4.5]decan-1-one] | 7.92
5 | COc1cc(N2CCC3(CCN(C(=O)c4ccc(N5CC(=O)NC5=O)cc4)CC3)C2=O)ccc1-c1cn[nH]c1 [Example 147, 1-(4-{2-[3-methoxy-4-(1H-pyrazol-4-yl)phenyl]-1-oxo-2,8-diazaspiro[4.5]decane-8-carbonyl}phenyl)imidazolidine-2,4-dione] | 7.92
6 | COc1cc(N2CCC3(CCN(C(=O)C4CCC(C(N)=O)CC4)CC3)C2=O)ccc1-c1cn[nH]c1 (centres unmarked) [Example 148, 4-{2-[3-methoxy-4-(H-pyrazol-4-yl)phenyl]-1-oxo-2,8-diazaspiro[4.5]decane-8-carbonyl}cyclohexane-1-carboxamide] | 5.66
7 | COc1cc(N2CCC3(CCN(C(=O)c4cccc5cccnc45)CC3)C2=O)ccc1-c1cn[nH]c1 [Example 149, 2-[3-methoxy-4-(1H-pyrazol-4-yl)phenyl]-8-(quinoline-8-carbonyl)-2,8-diazaspiro[4.5]decan-1-one] | 6.60
8 | COc1cc(N2CCC3(CCN(C(=O)c4ccc5cc6n(c5c4)C(C)CNC6=O)CC3)C2=O)ccc1-c1cn[nH]c1 (centres unmarked) [Example 150, 2-[3-methoxy-4-(1H-pyrazol-4-yl)phenyl]-8-{4-methyl-1-oxo-1H,2H,3H,4H-pyrazino[1,2-a]indole-7-carbonyl}-2,8-diazaspiro[4.5]decan-1-one] | 6.84
9 | COc1cc(CN2CCC(C(=O)N3CCC4(CC3)CCN(c3ccc(-c5cn[nH]c5)c(OC)c3)C4=O)CC2)ccc1F [Example 151, 8-{1-[(4-fluoro-3-methoxyphenyl)methyl]piperidine-4-carbonyl}-2-[3-methoxy-4-(1H-pyrazol-4-yl)phenyl]-2,8-diazaspiro[4.5]decan-1-one] | 5.61
10 | COc1cc(N2CCC3(CCN(C(=O)c4ccc5c(cnn5C)c4)CC3)C2=O)ccc1-c1cn[nH]c1 [Example 152, 2-[3-methoxy-4-(1H-pyrazol-4-yl)phenyl]-8-(1-methyl-1H-indazole-5-carbonyl)-2,8-diazaspiro[4.5]decan-1-one] | 8.21
11 | COc1cc(N2CCC3(CCN(C(=O)c4ccc5c(ccn5C)c4)CC3)C2=O)ccc1-c1cn[nH]c1 [Example 153, 2-[3-methoxy-4-(1H-pyrazol-4-yl)phenyl]-8-(1-methyl-1H-indole-5-carbonyl)-2,8-diazaspiro[4.5]decan-1-one] | 8.35
12 | COc1cc(N2CCC3(CCN(C(=O)C4CCN(S(C)(=O)=O)CC4)CC3)C2=O)ccc1-c1cn[nH]c1 [Example 154, 8-(1-methanesulfonylpiperidine-4-carbonyl)-2-[3-methoxy-4-(1H-pyrazol-4-yl)phenyl]-2,8-diazaspiro[4.5]decan-1-one] | 5.70
13 | COc1cc(N2CCC3(CCN(C(=O)c4ccc5ccn(C)c5c4)CC3)C2=O)ccc1-c1cn[nH]c1 [Example 155, 2-[3-methoxy-4-(1H-pyrazol-4-yl)phenyl]-8-(1-methyl-1H-indole-6-carbonyl)-2,8-diazaspiro[4.5]decan-1-one] | 7.40
14 | COc1ccc2c(c1)cc(C(=O)N1CCC3(CC1)CCN(c1ccc(-c4cn[nH]c4)c(OC)c1)C3=O)n2C [Example 156, 8-(5-methoxy-1-methyl-1H-indole-2-carbonyl)-2-[3-methoxy-4-(1H-pyrazol-4-yl)phenyl]-2,8-diazaspiro[4.5]decan-1-one] | 7.27
15 | COc1cc(N2CCC3(CCN(C(=O)c4ccc5c(c4)OCC(=O)N5)CC3)C2=O)ccc1-c1cn[nH]c1 [Example 157, 7-{2-[3-methoxy-4-(1H-pyrazol-4-yl)phenyl]-1-oxo-2,8-diazaspiro[4.5]decane-8-carbonyl}-3,4-dihydro-2H-1,4-benzoxazin-3-one] | 7.66
16 | COc1cc(N2CCC3(CCN(C(=O)c4ccc(-c5cccnc5)cc4)CC3)C2=O)ccc1-c1cn[nH]c1 [Example 158, 2-[3-methoxy-4-(1H-pyrazol-4-yl)phenyl]-8-[4-(pyridin-3-yl)benzoyl]-2,8-diazaspiro[4.5]decan-1-one] | 8.39

Row | SMILES | pIC50
17 | COc1cc(-c2cn[nH]c2)ccc1C(=O)N1CCC2(CC1)CCN(c1ccc(-c3cn[nH]c3)c(OC)c1)C2=O [Example 159, 8-[2-methoxy-4-(1H-pyrazol-4-yl)benzoyl]-2-[3-methoxy-4-(1H-pyrazol-4-yl)phenyl]-2,8-diazaspiro[4.5]decan-1-one] | 7.54
18 | COc1cc(N2CCC3(CCN(C(=O)c4ccc(-c5cnco5)cc4)CC3)C2=O)ccc1-c1cn[nH]c1 [Example 160, 2-[3-methoxy-4-(1H-pyrazol-4-yl)phenyl]-8-[4-(1,3-oxazol-5-yl)benzoyl]-2,8-diazaspiro[4.5]decan-1-one] | 7.64
19 | COc1ccc(C(=O)N2CCC3(CC2)CCN(c2ccc(-c4cn[nH]c4)c(OC)c2)C3=O)c(Br)c1 [Example 161, 8-(2-bromo-4-methoxybenzoyl)-2-[3-methoxy-4-(1H-pyrazol-4-yl)phenyl]-2,8-diazaspiro[4.5]decan-1-one] | 7.77
20 | COc1cc(N2CCC3(CCN(C(=O)c4ccc(-c5nnc(C)o5)cc4)CC3)C2=O)ccc1-c1cn[nH]c1 [Example 162, 2-[3-methoxy-4-(1H-pyrazol-4-yl)phenyl]-8-[4-(5-methyl-1,3,4-oxadiazol-2-yl)benzoyl]-2,8-diazaspiro[4.5]decan-1-one] | 7.57
21 | COc1cc(N2CCC3(CCN(C(=O)c4ccc(-c5nnco5)cc4)CC3)C2=O)ccc1-c1cn[nH]c1 [Example 163, 2-[3-methoxy-4-(1H-pyrazol-4-yl)phenyl]-8-[4-(1,3,4-oxadiazol-2-yl)benzoyl]-2,8-diazaspiro[4.5]decan-1-one] | 7.80
22 | COc1cc(N2CCC3(CCN(C(=O)c4ccc5c(c4)ncn5C)CC3)C2=O)ccc1-c1cn[nH]c1 [Example 164, 2-[3-methoxy-4-(1H-pyrazol-4-yl)phenyl]-8-(1-methyl-1H-1,3-benzodiazole-5-carbonyl)-2,8-diazaspiro[4.5]decan-1-one] | 8.59
23 | COc1cc(N2CCC3(CCN(C(=O)c4cc5cnccc5nc4C)CC3)C2=O)ccc1-c1cn[nH]c1 [Example 165, 2-[3-methoxy-4-(1H-pyrazol-4-yl)phenyl]-8-(2-methyl-1,6-naphthyridine-3-carbonyl)-2,8-diazaspiro[4.5]decan-1-one] | 6.05
24 | COc1cc(N2CCC3(CCN(C(=O)c4ccc5cnccc5c4)CC3)C2=O)ccc1-c1cn[nH]c1 [Example 166, 8-(isoquinoline-6-carbonyl)-2-[3-methoxy-4-(1H-pyrazol-4-yl)phenyl]-2,8-diazaspiro[4.5]decan-1-one] | 7.48
25 | COc1cc(N2CCC3(CCN(C(=O)c4ccc(CN5CCCC5)cc4)CC3)C2=O)ccc1-c1cn[nH]c1 [Example 168, 2-[3-methoxy-4-(1H-pyrazol-4-yl)phenyl]-8-{4-[(pyrrolidin-1-yl)methyl]benzoyl}-2,8-diazaspiro[4.5]decan-1-one] | 7.77
26 | COc1cc(N2CCC3(CCN(C(=O)c4ccc(CS(C)(=O)=O)cc4)CC3)C2=O)ccc1-c1cn[nH]c1 [Example 169, 8-[4-(methanesulfonylmethyl)benzoyl]-2-[3-methoxy-4-(1H-pyrazol-4-yl)phenyl]-2,8-diazaspiro[4.5]decan-1-one] | 7.89
27 | COc1ccc2cc(C(=O)N3CCC4(CC3)CCN(c3ccc(-c5cn[nH]c5)c(OC)c3)C4=O)n(C)c2c1 [Example 170, 8-(6-methoxy-1-methyl-1H-indole-2-carbonyl)-2-[3-methoxy-4-(1H-pyrazol-4-yl)phenyl]-2,8-diazaspiro[4.5]decan-1-one] | 6.93
28 | COc1cc(N2CCC3(CCN(C(=O)c4ccc(-c5ccncc5)cc4)CC3)C2=O)ccc1-c1cn[nH]c1 [Example 171, 2-[3-methoxy-4-(1H-pyrazol-4-yl)phenyl]-8-[4-(pyridin-4-yl)benzoyl]-2,8-diazaspiro[4.5]decan-1-one] | 8.26
29 | COc1cc(N2CCC3(CCN(C(=O)C4CCN(C)CC4)CC3)C2=O)ccc1-c1cn[nH]c1 [Example 172, 2-[3-methoxy-4-(1H-pyrazol-4-yl)phenyl]-8-(1-methylpiperidine-4-carbonyl)-2,8-diazaspiro[4.5]decan-1-one] | 5.68
30 | COc1cc(N2CCC3(CCN(C(=O)c4ccc(-c5ccc(S(C)(=O)=O)cc5)cc4)CC3)C2=O)ccc1-c1cn[nH]c1 [Example 173, 8-{4′-methanesulfonyl-[1,1′-biphenyl]-4-carbonyl}-2-[3-methoxy-4-(1H-pyrazol-4-yl)phenyl]-2,8-diazaspiro[4.5]decan-1-one] | 8.43
31 | COc1ccc(C(=O)N2CCC3(CC2)CCN(c2ccc(-c4cn[nH]c4)c(OC)c2)C3=O)c(OC)c1 [Example 174, 8-(2,4-dimethoxybenzoyl)-2-[3-methoxy-4-(1H-pyrazol-4-yl)phenyl]-2,8-diazaspiro[4.5]decan-1-one] | 7.54
32 | COc1cc(N2CCC3(CCN(C(=O)C4CCN(c5ccncc5)CC4)CC3)C2=O)ccc1-c1cn[nH]c1 [Example 175, 2-[3-methoxy-4-(1H-pyrazol-4-yl)phenyl]-8-[1-(pyridin-4-yl)piperidine-4-carbonyl]-2,8-diazaspiro[4.5]decan-1-one] | 6.71
